Experiments:
Assay in all cases: combination Emax (second highest fraction inhibited in the dose matrix, 72 h); higher = more inhibition; extreme values may be limits of the assay
[1] = test system: GP5d (Colorectal Carcinoma)
Summary of the method: (§1)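 After 24 hours at 37°C and 5% CO2 in 1536-well plates, cells in DMEM/F12 or RPMI plus 10% FBS received two-drug dose matrices for 72 hours. Viability came from CellTiter-Glo 2.0 luminescence and was scaled as inhibition, anchored at 0 by vehicle wells and at 1 by blank wells. Combination Emax is taken as the second-highest inhibition in the matrix, and Bliss excess as the observed combination effect less EA + EB − EA·EB, with EA and EB the single-agent effects.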

[2] = test system: HSC-39 (Gastric Carcinoma)
Summary of the method: as §1

[3] = test system: LB996-RCC (Kidney Carcinoma)
Summary of the method: as §1

[4] = test system: PSN1 (Pancreatic Carcinoma)
Summary of the method: as §1

[5] = test system: REH (B-Lymphoblastic Leukemia)
Summary of the method: as §1

[6] = test system: RERF-LC-Sq1 (Squamous Cell Lung Carcinoma)
Summary of the method: as §1

Row | Compound | combination Emax [1] | combination Emax [2] | combination Emax [3] | combination Emax [4] | combination Emax [5] | combination Emax [6]
1 | Cc1c2c(nn1C)CSCc1cc(n(C)n1)CSc1cc(c3ccccc3c1)OCCCc1c(C(=O)O)n(C)c3c-2c(Cl)ccc13 [AZD5991] + Cc1cc2ncnn2cc1Nc1ncc2c(n1)n(C1CCOCC1)c(=O)n2C [AZD7648] (first compound max 1 µM, 7x7, partner max 10 µM) | 0.824 | 1 | 0.363 | 0.406 | 0.8 | 0.37
2 | CN(C)CCCOc1ccc(-c2ccc3ncc4c(c3c2)n(C2CCOCC2)c(=O)n4C)cn1 [AZD0156] + CCN(CCO)CCCOc1ccc2c(Nc3cc(CC(=O)Nc4cccc(F)c4)[nH]n3)ncnc2c1 [AZD2811] (first compound max 1 µM, 7x7, partner max 1 µM) | 0.456 | 0.935 | 0.362 | 0.362 | 0.481 | 0.306
3 | CC1(C)CCC(CN2CCN(c3ccc(C(=O)NS(=O)(=O)c4ccc(NCC5CCOCC5)c([N+](=O)[O-])c4)c(Oc4cnc5[nH]ccc5c4)c3)CC2)=C(c2ccc(Cl)cc2)C1 [Venetoclax] + C1CN(CCC1(C(=O)N[C@@H](CCO)C2=CC=C(C=C2)Cl)N)C3=NC=NC4=C3C=CN4 [Capivasertib] (first compound max 1 µM, 7x7, partner max 3 µM) | 0.557 | 0.956 | 0.471 | 0.218 | 0.936 | 0.663
4 | COc1cccc2c1C(=O)c1c(O)c3c(c(O)c1C2=O)C[C@@](O)(C(=O)CO)C[C@@H]3O[C@H]1C[C@H](N)[C@H](O)[C@H](C)O1 [Doxorubicin] + Cc1cc2ncnn2cc1Nc1ncc2c(n1)n(C1CCOCC1)c(=O)n2C [AZD7648] (first compound max 1 µM, 7x7, partner max 10 µM) | 0.693 | 0.867 | 0.796 | 0.788 | 1 | 0.627
5 | CC1(C)CCC(CN2CCN(c3ccc(C(=O)NS(=O)(=O)c4ccc(NCC5CCOCC5)c([N+](=O)[O-])c4)c(Oc4cnc5[nH]ccc5c4)c3)CC2)=C(c2ccc(Cl)cc2)C1 [Venetoclax] + Cn1cnc2c(F)c(Nc3ccc(Br)cc3Cl)c(C(=O)NOCCO)cc21 [Selumetinib] (first compound max 1 µM, 7x7, partner max 3 µM) | 0.71 | 0.936 | 0.156 | 0.622 | 0.897 | 0.312
6 | C=CCn1c(=O)c2cnc(Nc3ccc(N4CCN(C)CC4)cc3)nc2n1-c1cccc(C(C)(C)O)n1 [AZD1775] + O=C(c1cc(Cc2n[nH]c(=O)c3ccccc23)ccc1F)N1CCN(C(=O)C2CC2)CC1 [Olaparib] (first compound max 1 µM, partner max 10 µM) | 0.713 | 0.988 | 0.845 | 0.478 | 0.835 | 0.675
7 | Cc1c2c(nn1C)CSCc1cc(n(C)n1)CSc1cc(c3ccccc3c1)OCCCc1c(C(=O)O)n(C)c3c-2c(Cl)ccc13 [AZD5991] + CCN(CCO)CCCOc1ccc2c(Nc3cc(CC(=O)Nc4cccc(F)c4)[nH]n3)ncnc2c1 [AZD2811] (first compound max 1 µM, 7x7, partner max 1 µM) | 0.956 | 1 | 0.405 | 0.319 | 0.931 | 0.622
8 | CC1(C)CCC(CN2CCN(c3ccc(C(=O)NS(=O)(=O)c4ccc(NCC5CCOCC5)c([N+](=O)[O-])c4)c(Oc4cnc5[nH]ccc5c4)c3)CC2)=C(c2ccc(Cl)cc2)C1 [Venetoclax] + C[C@@H](Nc1cc(F)cc(F)c1)c1cc(C(=O)N(C)C)cc2c(=O)cc(N3CCOCC3)oc12 [AZD8186] (first compound max 1 µM, 7x7, partner max 3 µM) | 0.228 | 0.972 | 0.306 | 0.313 | 0.96 | 0.121
9 | CC1(C)CCC(CN2CCN(c3ccc(C(=O)NS(=O)(=O)c4ccc(NCC5CCOCC5)c([N+](=O)[O-])c4)c(Oc4cnc5[nH]ccc5c4)c3)CC2)=C(c2ccc(Cl)cc2)C1 [Venetoclax] + CCN(CCO)CCCOc1ccc2c(Nc3cc(CC(=O)Nc4cccc(F)c4)[nH]n3)ncnc2c1 [AZD2811] (first compound max 1 µM, 7x7, partner max 1 µM) | 0.513 | 0.981 | 0.339 | 0.222 | 1 | 0.361
10 | C[C@@H]1COCCN1c1cc(C2([S@](C)(=N)=O)CC2)nc(-c2ccnc3[nH]ccc23)n1 [AZD6738] + O=C(c1cc(Cc2n[nH]c(=O)c3ccccc23)ccc1F)N1CCN(C(=O)C2CC2)CC1 [Olaparib] (first compound max 10 µM, 7x7, partner max 10 µM) | 0.823 | 1 | 0.675 | 0.5 | 0.917 | 0.75
11 | COc1cccc(OCCCN)c1-c1cc(Nc2cnc(C#N)cn2)n[nH]1 [Prexasertib] + O=C(c1cc(Cc2n[nH]c(=O)c3ccccc23)ccc1F)N1CCN(C(=O)C2CC2)CC1 [Olaparib] (first compound max 1 µM, 7x7, partner max 10 µM) | 0.945 | 1 | 0.759 | 0.456 | 0.987 | 0.833
12 | CN(CCO)CC[C@H](CSc1ccccc1)Nc1ccc(S(=O)(=O)NC(=O)c2ccc(N3CCC([C@@H](O)c4ccccc4-c4ccc(Cl)cc4)CC3)cc2)cc1S(=O)(=O)C(F)(F)F [AZD4320] + C=CCn1c(=O)c2cnc(Nc3ccc(N4CCN(C)CC4)cc3)nc2n1-c1cccc(C(C)(C)O)n1 [AZD1775] (first compound max 1 µM, partner max 1 µM) | 0.782 | 0.958 | 0.978 | 0.592 | 1 | 0.683
13 | Cc1c2c(nn1C)CSCc1cc(n(C)n1)CSc1cc(c3ccccc3c1)OCCCc1c(C(=O)O)n(C)c3c-2c(Cl)ccc13 [AZD5991] + C[C@@H]1COCCN1C2=NC(=NC(=C2)C3(CC3)[S@](=N)(=O)C)C4=C5C=CNC5=NC=C4 [AZD6738] (first compound max 1 µM, 7x7, partner max 10 µM) | 0.984 | 1 | 0.752 | 0.488 | 0.945 | 0.853
14 | Cc1c2c(nn1C)CSCc1cc(n(C)n1)CSc1cc(c3ccccc3c1)OCCCc1c(C(=O)O)n(C)c3c-2c(Cl)ccc13 [AZD5991] + C1CN(CCC1(C(=O)N[C@@H](CCO)C2=CC=C(C=C2)Cl)N)C3=NC=NC4=C3C=CN4 [Capivasertib] (first compound max 1 µM, 7x7, partner max 3 µM) | 0.733 | 1 | 0.433 | 0.241 | 0.849 | 0.757
15 | COc1cccc(OCCCN)c1-c1cc(Nc2cnc(C#N)cn2)n[nH]1 [Prexasertib] + CN(C)CCCOc1ccc(-c2ccc3ncc4c(c3c2)n(C2CCOCC2)c(=O)n4C)cn1 [AZD0156] (first compound max 1 µM, 7x7, partner max 1 µM) | 0.983 | 1 | 0.712 | 0.444 | 0.994 | 0.864
16 | C=CCn1c(=O)c2cnc(Nc3ccc(N4CCN(C)CC4)cc3)nc2n1-c1cccc(C(C)(C)O)n1 [AZD1775] + C[C@@H]1COCCN1C2=NC(=NC(=C2)C3(CC3)[S@](=N)(=O)C)C4=C5C=CNC5=NC=C4 [AZD6738] (first compound max 1 µM, partner max 10 µM) | 0.927 | 1 | 0.84 | 0.764 | 0.955 | 0.859
17 | Cc1cc2ncnn2cc1Nc1ncc2c(n1)n(C1CCOCC1)c(=O)n2C [AZD7648] + O=C(c1cc(Cc2n[nH]c(=O)c3ccccc23)ccc1F)N1CCN(C(=O)C2CC2)CC1 [Olaparib] (first compound max 10 µM, 7x7, partner max 10 µM) | 0.28 | 0.267 | 0.423 | 0.31 | 0.187 | 0.314
18 | COc1cc2c(cc1OCCCCCOc1cc3c(cc1OC)C(=O)N1C=C(C)C[C@H]1C=N3)N=C[C@@H]1CC(C)=CN1C2=O [SG3199] + O=C(c1cc(Cc2n[nH]c(=O)c3ccccc23)ccc1F)N1CCN(C(=O)C2CC2)CC1 [Olaparib] (first compound max 0.001 µM, 7x7, partner max 10 µM) | 0.189 | 0.185 | 0.282 | 0.127 | 0.197 | 0.129
19 | CN(CCO)CC[C@H](CSc1ccccc1)Nc1ccc(S(=O)(=O)NC(=O)c2ccc(N3CCC([C@@H](O)c4ccccc4-c4ccc(Cl)cc4)CC3)cc2)cc1S(=O)(=O)C(F)(F)F [AZD4320] + C[C@@H](Nc1cc(F)cc(F)c1)c1cc(C(=O)N(C)C)cc2c(=O)cc(N3CCOCC3)oc12 [AZD8186] (first compound max 1 µM, 7x7, partner max 3 µM) | 0.644 | 0.62 | 0.654 | 0.487 | 1 | 0.274
20 | Cc1cc2ncnn2cc1Nc1ncc2c(n1)n(C1CCOCC1)c(=O)n2C [AZD7648] + CN(C)CCCOc1ccc(-c2ccc3ncc4c(c3c2)n(C2CCOCC2)c(=O)n4C)cn1 [AZD0156] (first compound max 10 µM, 7x7, partner max 1 µM) | 0.293 | 0.215 | 0.339 | 0.38 | 0.258 | 0.197
21 | CN(CCO)CC[C@H](CSc1ccccc1)Nc1ccc(S(=O)(=O)NC(=O)c2ccc(N3CCC([C@@H](O)c4ccccc4-c4ccc(Cl)cc4)CC3)cc2)cc1S(=O)(=O)C(F)(F)F [AZD4320] + C[C@@H]1COCCN1C2=NC(=NC(=C2)C3(CC3)[S@](=N)(=O)C)C4=C5C=CNC5=NC=C4 [AZD6738] (first compound max 1 µM, 7x7, partner max 10 µM) | 0.859 | 1 | 0.837 | 0.453 | 1 | 0.791
